Assay results: patent US5116863A, “Dibenz[b,e]oxepin derivative and pharmaceutical compositions thereof” (Kyowa Hakko Kogyo Co., Ltd., priority 1986, dated 1992)
Like-named read-outs stand apart in the source and are kept apart here.

Key:
[1] = system: homologous PCA (passive cutaneous anaphlaxis) of rats; assay: Homologous PCA (passive cutaneous anaphylaxis) test of rats for 48 hours, oral (antiallergic activity); assay type: in vivo, Wistar male rats; conditions: for minimal effective dose / responders at 0.01 mg/kg / responders at 0.1 mg/kg / responders at 1 mg/kg / responders at 10 mg/kg / responders at 100 mg/kg / responders at 0.001 mg/kg: Rattus norvegicus; for minimal effective dose: read-out: MED (minimum effective dosage), PCA inhibition; for responders at 0.01 mg/kg / responders at 0.1 mg/kg / responders at 1 mg/kg / responders at 10 mg/kg / responders at 100 mg/kg / responders at 0.001 mg/kg: po; for responders at 0.01 mg/kg / responders at 0.1 mg/kg / responders at 1 mg/kg / responders at 10 mg/kg / responders at 100 mg/kg / responders at 0.001 mg/kg / Number of positive zooids in one group of 3 zooids: positive = inhibition rate 50% or higher; for responders at 0.01 mg/kg / responders at 0.1 mg/kg / responders at 1 mg/kg / responders at 10 mg/kg / responders at 100 mg/kg: read-out: Number of positive zooids in one group of 3 zooids (converted); for responders at 0.001 mg/kg: dosage 0.001 mg/kg, read-out: Number of positive zooids in one group of 3 zooids
Procedure: Antiallergic activity was investigated by a homologous PCA (passive cutaneous anaphlaxis) of rats for 48 hours, where Wistar male rats having body weights of 180 to 220 g were used for sampling of antiserum and Wistar male rats having body weights of 120 to 140 g were used for the PCA test.
Anti-egg white albumin (EWA) rat serum was prepared according to Stotland and Share's method [Canad. J. Physiol. Pharmacol. 52, 1114 (1974)]. That is, 1 mg of EWA was mixed with 20 mg of aluminum hydroxide gel and 0.5 ml of mixed vaccine of pertussis, diphtheria and tetanus, and the mixture was subcutaneously administered in four portions into rat's footpad. After 14 days, blood was sampled from the carotid artery, and the serum was separated from the sampled blood, and preserved under freezing at -80° C. The potency of the antiserumin in the homologous PCA for 48 hours was 1:32.
Groups each consisting of 3 rats were used, and 0.05 ml of anti-EWA rat serum diluted with a physiological saline solution to 8 times as much was incutaneously injected each at two positions of depilated back to make the animals passively sensitised. After 47 hours, the compound of the present invention, or its solution (physiological saline solution or CMC solution) was orally administered. One hour thereafter, 0.5 ml/100 g of 1% Evan's blue physiological saline solution containing 2 mg of the antigen EWA was administered into the tail vein, and 30 minutes thereafter, the animals were sacrificed by exsanguination. Then, the skins were stripped and the amount of leaked pigment at the blue-dyed parts was measured according to the Katayama et al method [Microbiol. Immunol. 22, 89 (1978)]. That is, the blue-dyed parts were cut out by scissors, and placed in test tubes containing 1 ml of 1N KOH and incubated at 37° C. for 24 hours. Then, 9 ml of a mixture of 0.6N phosphoric acid and acetone (5:13) was added thereto, and the mixture was shaked and centrifuged at 2,500 rpm for 10 minutes. Absorbancy of the supernatant at […] was measured, and the amount of leaked pigment was quantitatively determined by the calibration curve prepared in advance. An average of measurements at the two position was made a value for one zooid, and inhibition rate for the individual zooid was calculated by the following formula: [formula]

dd, male mice = assay type: in vivo
Procedure: Groups each consisting of 3 dd, male mice having body weights of 20±1 g were used, and the compound of the present invention was administered orally (po: 300 mg/kg) or intraperitoneally (ip: 100 mg/kg).

[2] = minimum dosage with positive case in at least one of three rats
[3] = mice, mortality 7 days after administration

| SMILES | minimal effective dose [1, 2] | responders at 0.01 mg/kg ([1]; dosage 0.01 mg/kg) | responders at 0.1 mg/kg ([1]; dosage 0.1 mg/kg) | responders at 1 mg/kg ([1]; dosage 1 mg/kg) | responders at 10 mg/kg ([1]; dosage 10 mg/kg) | responders at 100 mg/kg ([1]; dosage 100 mg/kg) | Acute toxicity (MLD), ip (dd, male mice; [3]) | Acute toxicity (MLD), po (dd, male mice; [3]) | Acute toxicity (MLD), ip (dd, male mice; mouse, in vivo, 10080 min) | Acute toxicity (MLD), po (dd, male mice; mouse, in vivo, 10080 min) | responders at 0.001 mg/kg [1] | Number of positive zooids in one group of 3 zooids ([1]; dosage 0.01 mg/kg) | Number of positive zooids in one group of 3 zooids ([1]; dosage 0.1 mg/kg) | Number of positive zooids in one group of 3 zooids ([1]; dosage 1 mg/kg) | Number of positive zooids in one group of 3 zooids ([1]; dosage 10 mg/kg) | Number of positive zooids in one group of 3 zooids ([1]; dosage 100 mg/kg) | MED (minimum effective dosage), PCA inhibition [1, 2] |
| --- | --- | --- | --- | --- | --- | --- | --- | --- | --- | --- | --- | --- | --- | --- | --- | --- | --- |
| CN(C)CC/C=C1\c2ccccc2COc2ccc(C(=O)O)cc21 [3'] | 0.1 mg/kg | 0% | 33.3% | 33.3% | 66.7% | 100% | – | – | – | – | – | – | – | – | – | – | – |
| CN(C)CC/C=C1\c2ccccc2COc2ccc(CC(=O)O)cc21 [20'] | 0.1 mg/kg | 0% | – | 100% | – | – | – | – | – | – | – | – | – | – | – | – | – |
| CN(C)CC/C=C1/c2ccccc2COc2ccc(C(=O)O)cc21 [Compound 3 (cis), Cis-11-(3-dimethylaminopropylidene)-6,11-dihydrodibenz[b,e]oxepin-2-carboxylic acid] | 0.1 mg/kg | 0% | 100% | 100% | 100% | 100% | > 100 mg/kg | > 300 mg/kg | – | – | – | – | – | – | – | – | – |
| CCN(CC)CC/C=C1/c2ccccc2COc2ccc(C(=O)O)cc21 [Compound 5, 11-(3-Diethylaminopropylidene)-6,11-dihydrodibenz[b,e]oxepin-2-carboxylic acid] | 1 mg/kg | 0% | – | 100% | 100% | 100% | – | – | > 100 mg/kg | > 300 mg/kg | – | – | – | – | – | – | – |
| O=C(O)c1ccc2c(c1)C(=CCCN1CCCC1)c1ccccc1CO2 [Compound 7, 11-(3-Pyrrolidinopropylidene)-6,11-dihydrodibenz[b,e]oxepin-2-carboxylic acid] | 1 mg/kg | – | 0% | 33.3% | 66.7% | 100% | > 100 mg/kg | > 300 mg/kg | – | – | – | – | – | – | – | – | – |
| CN(C)CCCC=C1c2ccccc2COc2ccc(C(=O)O)cc21 [Compound 9, 11-(4-Dimethylaminobutylidene)-6,11-dihydrodibenz[b,e]oxepin-2-carboxylic acid] | 1 mg/kg | 0% | 0% | 66.7% | 100% | 100% | > 100 mg/kg | > 300 mg/kg | – | – | – | – | – | – | – | – | – |
| CN1CCN(C/C=C2\c3ccccc3COc3ccc(C(=O)O)cc32)CC1 [Compound 11, 11-[2-(4-Methylpiperazino)ethylidene]-6,11-dihydrodibenz[b,e]oxepin-2-carboxylic acid] | 10 mg/kg | – | 0% | 0% | 33.3% | 66.7% | – | – | > 100 mg/kg | > 300 mg/kg | – | – | – | – | – | – | – |
| O=C(O)c1ccc2c(c1)C(=CCN1CCOCC1)c1ccccc1CO2 [Compound 13, 11-(2-Morpholinoethylidene)-6,11-dihydrodibenz[b,e]oxepin-2-carboxylic acid] | 10 mg/kg | – | 0% | 0% | 33.3% | 100% | > 100 mg/kg | > 300 mg/kg | – | – | – | – | – | – | – | – | – |
| O=C(O)c1ccc2c(c1)/C(=C\CN1CCSCC1)c1ccccc1CO2 [Compound 15, 11-(2-Thiomorpholinoethylidene)-6,11-dihydrodibenz[b,e]oxepin-2-carboxylic acid] | 100 mg/kg | – | 0% | 0% | 0% | 100% | – | – | – | – | – | – | – | – | – | – | – |
| CN(C)CC/C=C1/c2ccccc2COc2ccc(CC(=O)O)cc21 [Compound 20 (cis), Cis-11-(3-dimethylaminopropylidene)-6,11-dihydrodibenz[b,e]oxepin-2-acetic acid] | 0.01 mg/kg | 33.3% | 100% | 100% | 100% | 100% | > 100 mg/kg | > 300 mg/kg | – | – | 0% | – | – | – | – | – | – |
| CN(C)CC/C=C1\c2ccccc2COc2ccc(CC(=O)O)cc21 [Compound 20 (trans), Trans-11-(3-dimethylaminopropylidene)-6,11-dihydrodibenz[b,e]oxepin-2-acetic acid] | – | – | – | – | – | – | > 100 mg/kg | > 300 mg/kg | – | – | 0% | 0/3 | 3/3 | 3/3 | 2/3 | 2/3 | 0.1 mg/kg |
| CN(C)CCCC=C1c2ccccc2COc2ccc(CC(=O)O)cc21 [Compound 22, 11-(4-Dimethylaminobutylidene)-6,11-dihydrodibenz[b,e]oxepin-2-acetic acid] | 0.1 mg/kg | 0% | 33.3% | 66.7% | 100% | 100% | > 100 mg/kg | > 300 mg/kg | – | – | – | – | – | – | – | – | – |
| CN1CCN(CC=C2c3ccccc3COc3ccc(CC(=O)O)cc32)CC1 [Compound 26, 11-[2-(4-Methylpiperazino)ethylidene]-6,11-dihydrodibenz[b,e]oxepin-2-acetic acid] | 1 mg/kg | – | 0% | 66.7% | 100% | 100% | > 100 mg/kg | > 300 mg/kg | – | – | – | – | – | – | – | – | – |
| CN(C)CC/C=C1/c2ccccc2COc2ccc(CCC(=O)O)cc21 [Compound 28 (cis), Cis-3-[11-(3-dimethylaminopropylidene)-6,11-dihydrodibenz[b,e]oxepin-2-yl]-propionic acid] | 0.1 mg/kg | 0% | 33.3% | 100% | 66.7% | 100% | > 100 mg/kg | > 300 mg/kg | – | – | – | – | – | – | – | – | – |
| CN(C)CC/C=C1\c2ccccc2COc2ccc(CCC(=O)O)cc21 [Compound 28 (trans), Trans-3-[11-(3-dimethylaminopropylidene)-6,11-dihydrodibenz[b,e]oxepin-2-yl]-propionic acid] | 0.01 mg/kg | 33.3% | 66.7% | 66.7% | 100% | 100% | > 100 mg/kg | > 300 mg/kg | – | – | 0% | – | – | – | – | – | – |
| CN(C)CC/C=C1/c2ccccc2COc2ccc(CCCO)cc21 [Compound 33, Cis-11-(3-dimethylaminopropylidene)-2-(3-hydroxypropyl)-6,11-dihydrodibenz[b,e]oxepin; Trans-11-(3-dimethylaminopropylidene)-2-(3-hydroxypropyl)-6,11-dihydrodibenz[b,e]oxepin] | 1 mg/kg | – | 0% | 33.3% | 100% | 100% | – | – | – | – | – | – | – | – | – | – | – |
